{"source": "patent US12077503B2", "about": "“Substituted cyclic amides and their use as herbicides” (FMC CORPORATION, priority 2015, dated 2024)", "assay_type_in_all_cases": "in vivo", "key": {"[1]": {"system": "barnyardgrass (Echinochloa crus-galli)", "assay": "Test G Pre-Emergence Protocol", "conditions": "Echinochloa crus-galli, pre-emergence, 312 h, evaluated after 13 days", "outline": "(§1)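 Glasshouse pre-emergence test: soil-sown seeds, sprayed after 1 d at 15.625, 62.5 or 250 g/ha. Conditions 24/16° C day/night, 14 h light, 65% humidity, watering twice daily. Rating 13 d post-spray (100 = total damage).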"}, "[2]": {"system": "corn (Zea mays)", "assay": "Test G Pre-Emergence Protocol", "conditions": "Zea mays, pre-emergence, 312 h, evaluated after 13 days", "outline": "as §1"}, "[3]": {"system": "giant foxtail (Setaria faberi)", "assay": "Test G Pre-Emergence Protocol", "conditions": "Setaria faberi, pre-emergence, 312 h, evaluated after 13 days", "outline": "as §1"}, "[4]": {"system": "ivy-leaved morning glory (Ipomoea hederacea)", "assay": "Test G Pre-Emergence Protocol", "conditions": "Ipomoea, pre-emergence, 312 h, evaluated after 13 days", "outline": "as §1"}, "[5]": {"system": "redroot pigweed (Amaranthus retroflexus)", "assay": "Test G Pre-Emergence Protocol", "conditions": "Amaranthus retroflexus, pre-emergence, 312 h, evaluated after 13 days", "outline": "as §1"}, "[6]": {"system": "velvetleaf (Abutilon theophrasti)", "assay": "Test G Pre-Emergence Protocol", "conditions": "Abutilon theophrasti, pre-emergence, 312 h, evaluated after 13 days", "outline": "as §1"}, "[7]": {"system": "barnyardgrass (Echinochloa crus-galli)", "assay": "Test G Post-Emergence Protocol", "conditions": "Echinochloa crus-galli, post-emergence, 312 h, read-out: Barnyardgrass damage rating", "outline": "(§2)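 Values are percent visual injury at 13 days after treatment (0 none, 100 total). Treatment was a post-emergence spray at 15.625, 62.5 or 250 g/ha on 8-day-old pot plants kept at 24/16 °C.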"}, "[8]": {"system": "corn (Zea mays)", "assay": "Test G Post-Emergence Protocol", "conditions": "Zea mays, post-emergence, 312 h, read-out: Corn damage rating", "outline": "as §2"}, "[9]": {"system": "giant foxtail (Setaria faberi)", "assay": "Test G Post-Emergence Protocol", "conditions": "Setaria faberi, post-emergence, 312 h, read-out: Foxtail, Giant damage rating", "outline": "as §2"}, "[10]": {"system": "ivy-leaved morning glory (Ipomoea hederacea)", "assay": "Test G Post-Emergence Protocol", "conditions": "Ipomoea, post-emergence, 312 h, read-out: Morningglory, Ivy-leaved damage rating", "outline": "as §2"}, "[11]": {"system": "redroot pigweed (Amaranthus retroflexus)", "assay": "Test G Post-Emergence Protocol", "conditions": "Amaranthus retroflexus, post-emergence, 312 h, read-out: Pigweed, Redroot damage rating", "outline": "as §2"}, "[12]": {"system": "velvetleaf (Abutilon theophrasti)", "assay": "Test G Post-Emergence Protocol", "conditions": "Abutilon theophrasti, post-emergence, 312 h, read-out: Velvetleaf damage rating", "outline": "as §2"}, "[13]": {"conditions": "15.625 g ai/ha, evaluated after 13 days (100=total damage to plant; 0=no damage to plant)"}, "[14]": {"conditions": "62.5 g ai/ha, evaluated after 13 days, 100=total damage to plant, 0=no damage to plant"}, "[15]": {"conditions": "250 g ai/ha, evaluated after 13 days, 100=total damage to plant, 0=no damage to plant"}}}
{"smiles": "Cc1ccc(C2CN(C)C(=O)C2C(=O)Nc2cccc(F)c2F)cc1C#N", "note": "(stereo not drawn) [Compound 1687]", "values": [{"measurement": "pest or weed control at 15.625 g/ha", "setting": "[1]; 15.625 g ai/ha, read-out: Barnyardgrass damage rating (100=total damage to plant; 0=no damage to plant)", "result": 40, "unit": "%"}, {"measurement": "pest or weed control at 62.5 g/ha", "setting": "[1]; 62.5 g ai/ha, 100=total damage to plant, 0=no damage to plant, read-out: Barnyardgrass damage rating", "result": 70, "unit": "%"}, {"measurement": "pest or weed control at 250 g/ha", "setting": "[1]; 250 g ai/ha, read-out: Barnyardgrass damage rating (100=total damage to plant; 0=no damage to plant)", "result": 80, "unit": "%"}, {"measurement": "plant injury at 15.625 g/ha", "setting": "[2]; 15.625 g ai/ha, read-out: Corn damage rating (100=total damage to plant; 0=no damage to plant)", "result": 0, "unit": "%"}, {"measurement": "plant injury at 62.5 g/ha", "setting": "[2]; 62.5 g ai/ha, 100=total damage to plant, 0=no damage to plant, read-out: Corn damage rating", "result": 40, "unit": "%"}, {"measurement": "plant injury at 250 g/ha", "setting": "[2]; 250 g ai/ha, read-out: Corn damage rating (100=total damage to plant; 0=no damage to plant)", "result": 90, "unit": "%"}, {"measurement": "pest or weed control at 15.625 g/ha", "setting": "[3]; 15.625 g ai/ha, read-out: Foxtail, Giant damage rating (100=total damage to plant; 0=no damage to plant)", "result": 60, "unit": "%"}, {"measurement": "pest or weed control at 62.5 g/ha", "setting": "[3]; 62.5 g ai/ha, 100=total damage to plant, 0=no damage to plant, read-out: Foxtail, Giant damage rating", "result": 70, "unit": "%"}, {"measurement": "pest or weed control at 250 g/ha", "setting": "[3]; 250 g ai/ha, read-out: Foxtail, Giant damage rating (100=total damage to plant; 0=no damage to plant)", "result": 90, "unit": "%"}, {"measurement": "pest or weed control at 15.625 g/ha", "setting": "[4]; 15.625 g ai/ha, read-out: Morningglory, Ivy-leaved damage rating (100=total damage to plant; 0=no damage to plant)", "result": 0, "unit": "%"}, {"measurement": "pest or weed control at 62.5 g/ha", "setting": "[4]; 62.5 g ai/ha, 100=total damage to plant, 0=no damage to plant, read-out: Morningglory, Ivy-leaved damage rating", "result": 40, "unit": "%"}, {"measurement": "pest or weed control at 250 g/ha", "setting": "[4]; 250 g ai/ha, read-out: Morningglory, Ivy-leaved damage rating (100=total damage to plant; 0=no damage to plant)", "result": 50, "unit": "%"}, {"measurement": "pest or weed control at 15.625 g/ha", "setting": "[5]; 15.625 g ai/ha, read-out: Pigweed, Redroot damage rating (100=total damage to plant; 0=no damage to plant)", "result": 0, "unit": "%"}, {"measurement": "pest or weed control at 62.5 g/ha", "setting": "[5]; 62.5 g ai/ha, 100=total damage to plant, 0=no damage to plant, read-out: Pigweed, Redroot damage rating", "result": 10, "unit": "%"}, {"measurement": "pest or weed control at 250 g/ha", "setting": "[5]; 250 g ai/ha, read-out: Pigweed, Redroot damage rating (100=total damage to plant; 0=no damage to plant)", "result": 30, "unit": "%"}, {"measurement": "pest or weed control at 15.625 g/ha", "setting": "[6]; 15.625 g ai/ha, read-out: Velvetleaf damage rating (100=total damage to plant; 0=no damage to plant)", "result": 0, "unit": "%"}, {"measurement": "pest or weed control at 62.5 g/ha", "setting": "[6]; 62.5 g ai/ha, 100=total damage to plant, 0=no damage to plant, read-out: Velvetleaf damage rating", "result": 0, "unit": "%"}, {"measurement": "pest or weed control at 250 g/ha", "setting": "[6]; 250 g ai/ha, read-out: Velvetleaf damage rating (100=total damage to plant; 0=no damage to plant)", "result": 10, "unit": "%"}, {"measurement": "pest or weed control at 15.625 g/ha", "setting": "[7]; [13]", "result": 0, "unit": "%"}, {"measurement": "pest or weed control at 62.5 g/ha", "setting": "[7]; [14]", "result": 50, "unit": "%"}, {"measurement": "pest or weed control at 250 g/ha", "setting": "[7]; [15]", "result": 80, "unit": "%"}, {"measurement": "plant injury at 15.625 g/ha", "setting": "[8]; [13]", "result": 10, "unit": "%"}, {"measurement": "plant injury at 62.5 g/ha", "setting": "[8]; [14]", "result": 40, "unit": "%"}, {"measurement": "plant injury at 250 g/ha", "setting": "[8]; [15]", "result": 90, "unit": "%"}, {"measurement": "pest or weed control at 15.625 g/ha", "setting": "[9]; [13]", "result": 60, "unit": "%"}, {"measurement": "pest or weed control at 62.5 g/ha", "setting": "[9]; [14]", "result": 80, "unit": "%"}, {"measurement": "pest or weed control at 250 g/ha", "setting": "[9]; [15]", "result": 80, "unit": "%"}, {"measurement": "pest or weed control at 15.625 g/ha", "setting": "[10]; [13]", "result": 20, "unit": "%"}, {"measurement": "pest or weed control at 62.5 g/ha", "setting": "[10]; [14]", "result": 60, "unit": "%"}, {"measurement": "pest or weed control at 250 g/ha", "setting": "[10]; [15]", "result": 70, "unit": "%"}, {"measurement": "pest or weed control at 15.625 g/ha", "setting": "[11]; [13]", "result": 40, "unit": "%"}, {"measurement": "pest or weed control at 62.5 g/ha", "setting": "[11]; [14]", "result": 40, "unit": "%"}, {"measurement": "pest or weed control at 250 g/ha", "setting": "[11]; [15]", "result": 50, "unit": "%"}, {"measurement": "pest or weed control at 15.625 g/ha", "setting": "[12]; [13]", "result": 40, "unit": "%"}, {"measurement": "pest or weed control at 62.5 g/ha", "setting": "[12]; [14]", "result": 40, "unit": "%"}, {"measurement": "pest or weed control at 250 g/ha", "setting": "[12]; [15]", "result": 50, "unit": "%"}]}
